Source: ChEMBL document CHEMBL1137989, “Synthesis, electrochemistry, and bioactivity of the cyanobacterial calothrixins and related quinones” (J Med Chem, 2004)

tested on: HeLa; assay: Cytotoxicity against HeLa cell lines; format: functional, cell-based; details: Homo sapiens

| Compound | EC50 [nM] |
| --- | --- |
| O=C1c2ccccc2C(=O)c2c1[nH]c1ccccc21 [BENZOCARBAZOLEDIONE] | 430 |
| COC(=O)c1ccccc1C(=O)c1c[nH]c2ccccc12 | > 50000 |
| O=C1c2ccncc2C(=O)c2c1[nH]c1ccccc21 | 150 |
| CC1=CC(=O)c2ccccc2C1=O [MENADIONE] | 3700 |
| COn1c2c(c3ccccc31)C(=O)c1ccccc1C2=O | 1600 |
| COCn1c2c(c3ccccc31)C(=O)c1cnc3ccccc3c1C2=O | 420 |
| COC(=O)c1ccccc1C(=O)c1cn(OC)c2ccccc12 | > 50000 |
| O=C1c2c[n+]([O-])c3ccccc3c2C(=O)c2[nH]c3ccccc3c21 [CALOTHRIXIN A] | 120 |
| O=C1c2[nH]c3ccccc3c2C(=O)c2cnc3ccccc3c21 [CALOTHRIXIN B] | 240 |
